Measured values taken from PubChem BioAssay (NCI).
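Interpolation was linear, between the two tested concentrations surrounding the appropriate level; five concentrations were tested over 48 hours in 96-well plates. TGI: concentration producing complete growth inhibition.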

Tests used:
Assay in all cases: NCI-60 cell line screen, 48 h
[1] = test system: SR leukemia
[2] = test system: U251 CNS
[3] = test system: HOP-62 NSCLC
[4] = test system: SK-OV-3 ovarian
[5] = test system: MDA-N
[6] = test system: NCI-H23 lung
[7] = test system: HCC-2998 colon
[8] = test system: SW-620 colon
[9] = test system: HCT-15 colon
[10] = test system: SN12C renal
[11] = test system: SNB-75 CNS
[12] = test system: SF-539 CNS
[13] = test system: HL-60(TB) leukemia
[14] = test system: MOLT-4 leukemia
[15] = test system: HS 578T breast
[16] = test system: COLO 205 colon
[17] = test system: SK-MEL-5 melanoma
[18] = test system: 786-0 renal
[19] = test system: UACC-62 melanoma

| SMILES | TGI [1] [µM] | TGI [2] [µM] | TGI [3] [µM] | TGI [4] [µM] | TGI [5] [µM] | TGI [6] [µM] | TGI [7] [µM] | TGI [8] [µM] | TGI [9] [µM] | TGI [10] [µM] | TGI [11] [µM] | TGI [12] [µM] | TGI [13] [µM] | TGI [14] [µM] | TGI [15] [µM] | TGI [16] [µM] | TGI [17] [µM] | TGI [18] [µM] | TGI [19] [µM] |
| --- | --- | --- | --- | --- | --- | --- | --- | --- | --- | --- | --- | --- | --- | --- | --- | --- | --- | --- | --- |
| Cc1cnc(/N=c2\sc(C)cn2-c2ncc(C)s2)s1 | > 100 | > 100 | > 100 | > 100 | > 100 | > 100 | > 100 | > 100 | > 100 | > 100 | > 100 | > 100 | > 100 | > 100 | > 100 | > 100 | > 100 | > 100 | > 100 |
| COc1ccc(C(=O)/C=C/c2ccc(OCCSCCCCCCCCCCSCCOc3ccc(/C=C/C(=O)c4ccc(OC)cc4)cc3)cc2)cc1 | > 100 | > 100 | > 100 | > 100 | > 100 | – | > 100 | > 100 | > 100 | > 100 | > 100 | > 100 | > 100 | > 100 | > 100 | > 100 | > 100 | > 100 | > 100 |
| CC(=O)OC1COC(n2nc(/C=C/c3ccc(Cl)cc3)c(=O)n(/N=C/c3ccccc3)c2=S)C(OC(C)=O)C1OC(C)=O (stereo not drawn) | > 100 | > 100 | > 100 | > 100 | > 100 | > 100 | > 100 | > 100 | > 100 | > 100 | > 100 | > 100 | > 100 | > 100 | > 100 | > 100 | > 100 | > 100 | > 100 |
| O=c1[nH]/c(=C/c2ccc(OCc3ccccc3)cn2)c(=O)[nH]/c1=C/c1ccc(Cl)cc1 | 4.53 | > 100 | 47.8 | > 100 | 0.723 | > 100 | > 100 | > 100 | > 100 | > 100 | 25.2 | > 100 | > 40.2 | > 100 | 2.68 | > 100 | > 100 | > 100 | > 100 |
| c1ccc(-c2ccc(-c3cc4ccccc4[nH]3)cc2)cc1 | > 100 | > 100 | > 100 | > 100 | > 100 | > 100 | > 100 | > 100 | > 100 | > 100 | > 100 | > 100 | > 100 | > 100 | > 100 | > 100 | > 100 | > 100 | > 100 |
| C(=C\c1nccs1)/c1cccc(/C=C/c2nccs2)n1 | > 50 | > 50 | > 50 | > 50 | > 50 | > 50 | > 50 | > 50 | > 50 | > 50 | > 50 | > 50 | > 50 | > 50 | > 50 | > 50 | > 50 | > 50 | > 50 |
